Patent US6643591B1, “Use of computational and experimental data to model organic compound reactivity in cytochrome P450 mediated reactions and to optimize the design of pharmaceuticals” (University of Pittsburgh, priority 1998, dated 2003)

Legend:
CYP1A2 = target: T1, CYP1A2 (Homo sapiens, UniProt P05177); assay: in vitro
T1 sequence (P05177 1-516): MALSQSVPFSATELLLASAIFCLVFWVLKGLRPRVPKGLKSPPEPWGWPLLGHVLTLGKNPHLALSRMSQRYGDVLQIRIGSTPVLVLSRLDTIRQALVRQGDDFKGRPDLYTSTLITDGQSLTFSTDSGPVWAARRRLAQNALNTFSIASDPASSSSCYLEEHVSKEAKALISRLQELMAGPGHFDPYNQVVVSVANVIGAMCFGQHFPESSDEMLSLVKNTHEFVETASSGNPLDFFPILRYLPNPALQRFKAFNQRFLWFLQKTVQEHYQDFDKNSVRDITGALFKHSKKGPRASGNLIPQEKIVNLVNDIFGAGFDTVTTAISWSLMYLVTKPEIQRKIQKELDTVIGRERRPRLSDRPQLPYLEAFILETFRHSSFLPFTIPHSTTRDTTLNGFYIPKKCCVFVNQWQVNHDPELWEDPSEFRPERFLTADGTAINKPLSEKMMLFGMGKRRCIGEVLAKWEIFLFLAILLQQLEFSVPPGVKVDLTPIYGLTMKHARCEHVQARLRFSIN

CYP2E1 = CYP2E1 (Homo sapiens, UniProt P05181); assay: in vitro
CYP2B6, CYP2C9, CYP4B1 = assay: in vitro; settings: pH 7.4, Regioselectivity BzH:Arom, range, isoforms 2B6, 2C9 and 4B1
CYP1A2, CYP2B1, CYP2E1 = assay: in vitro; settings: pH 7.4, Regioselectivity BzH:Arom, range, isoforms 1A2, 2B1 and 2E1
multiple CYP isoforms = assay: in vitro; settings: pH 7.4, Regioselectivity BzH:ODAlk, range, range over the isoforms
CYP = assay: Experimental product ratios for aromatic oxidation; settings: Arom/benz
Excerpt: These equations may be solved with the data in Table 4, which provides experimental data for aromatic oxidation reactions with a number of substrates.
Experimental metabolite ratios may also be used to parameterize the aromatic oxidation reaction in a theoretical model for CYP reactions. As with hydrogen atom abstraction discussed in the previous Examples, experimental ratios of aromatic oxidation to an alternate position may be determined using various CYP enzymes. These substrates were chosen based on their small size, the presence of an alternate position for metabolism, and their hydrophobicity.
In order for the substrates to be useful, the average of the rotation rates in the active sites should be rapid. […] Several human expressed CYP enzymes were used in these studies, including CYP1A1, 1A2, 2A6, 2B6, 2C8, 2C9, 2D6, 2E1, 3A4, and 3A5. The use of multiple enzymes insures that a reasonable average of any orientation preferences within the active site (see FIG. 1).

[1] = pH 7.4, Regioselectivity BzH:Arom
[2] = pH 7.4, Regioselectivity BzH:ODAlk

Chain of CYP2E1 (P05181 whole entry, canonical isoform): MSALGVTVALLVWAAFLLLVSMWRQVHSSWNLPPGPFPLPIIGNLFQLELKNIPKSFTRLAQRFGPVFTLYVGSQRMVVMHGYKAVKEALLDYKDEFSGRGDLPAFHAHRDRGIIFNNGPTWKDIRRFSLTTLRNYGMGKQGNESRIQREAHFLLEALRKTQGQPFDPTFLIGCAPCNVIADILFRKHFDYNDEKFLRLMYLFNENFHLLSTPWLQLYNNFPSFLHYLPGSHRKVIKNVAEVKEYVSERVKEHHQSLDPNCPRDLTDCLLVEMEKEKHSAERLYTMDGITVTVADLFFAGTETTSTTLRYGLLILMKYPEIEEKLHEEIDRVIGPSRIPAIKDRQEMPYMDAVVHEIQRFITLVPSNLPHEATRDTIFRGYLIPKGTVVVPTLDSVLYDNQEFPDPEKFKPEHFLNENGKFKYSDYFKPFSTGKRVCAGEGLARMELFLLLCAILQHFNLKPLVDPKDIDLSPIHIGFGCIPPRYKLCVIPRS

COc1ccccc1C [o-Methylanisole, o-methylanisole]
selectivity ratio (CYP1A2; [1]): 0.63
selectivity ratio (CYP1A2; [2]): 2.9
selectivity ratio (CYP2E1; [1]): 0.48
selectivity ratio (CYP2E1; [2]): 1.6
selectivity ratio at 20 min, […] (CYP2B6, CYP2C9, CYP4B1): 1.6 to 22
selectivity ratio at 20 min, […] (CYP1A2, CYP2B1, CYP2E1): 0.3 to 0.6
selectivity ratio at 20 min, […] (multiple CYP isoforms): 1.2 to 3
Experimental Ratio (CYP): 1.76
